# Reference: patent US20250129104A1, “7H-PYRROLO[2,3-D]PYRIMIDINES AND PREPARATION AND USES THEREOF” (BioSplice Therapeutics, Inc., priority 2021, published 2025)
# Biological target: recombinant DYRK1A kinase (Homo sapiens (Human), UniProt Q13627)
# Experiment: DYRK1A kinase assay (Ser/Thr 18 peptide Z-lyte FRET assay)
# Type: biochemical
# Settings: DYRK1A kinase activity; 15 μM ATP, 1 h room temperature; method text calls the value IC50
# In short: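 Recombinant human DYRK1A (0.25 μg/mL) with 15 μM ATP and 4 μM Ser/Thr 18 peptide, 1 h at room temperature with compound (11-point, 1:3, 10 μM top, duplicate). Z-lyte development 1 h, then coumarin/fluorescein FRET emission ratio converted to % phosphorylation; IC50 by non-linear regression.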
row,EC50,SMILES
1,0.25 µM,"COc1nc(NC2CCC(F)(F)CC2)nc2[nH]cc(-c3ccc4nc(C)n(CC(F)F)c4n3)c12 [Compound 2279, N-(4,4-Difluorocyclohexyl)-5-(3-(2,2-difluoroethyl)-2-methyl-3H-imidazo[4,5-b]pyridin-5-yl)-4-methoxy-7H-pyrrolo[2,3-d]pyrimidin-2-amine]"
2,0.269 µM,"COc1nc(N[C@H]2CC[C@@H](OC(F)F)CC2)nc2[nH]cc(-c3ccc4nc(C)n(CC(F)F)c4n3)c12 [Compound 2281, 5-(3-(2,2-Difluoroethyl)-2-methyl-3H-imidazo[4,5-b]pyridin-5-yl)-N-(cis-4-(difluoromethoxy)cyclohexyl)-4-methoxy-7H-pyrrolo[2,3-d]pyrimidin-2-amine]"
3,0.0474 µM,"COc1nc(NCC(C)(C)F)nc2[nH]cc(-c3ccc4nnn(C)c4c3)c12 [Compound 2283, N-(2-Fluoro-2-methylpropyl)-4-methoxy-5-(1-methyl-1H-benzo[d][1,2,3]triazol-6-yl)-7H-pyrrolo[2,3-d]pyrimidin-2-amine]"
4,0.0839 µM,"COc1nc(NC2CCC(F)(F)CC2)nc2[nH]cc(-c3ccc4nnn(C)c4c3)c12 [Compound 2284, N-(4,4-Difluorocyclohexyl)-4-methoxy-5-(1-methyl-1H-benzo[d][1,2,3]triazol-6-yl)-7H-pyrrolo[2,3-d]pyrimidin-2-amine]"
5,0.2 µM,"[2H]C([2H])([2H])O[C@H]1CC[C@@H](Nc2nc(OC)c3c(-c4ccc5nnn(C)c5c4)c[nH]c3n2)CC1 [Compound 2285, 4-Methoxy-N-(cis-4-(methoxy-d3)cyclohexyl)-5-(1-methyl-1H-benzo[d][1,2,3]triazol-6-yl)-7H-pyrrolo[2,3-d]pyrimidin-2-amine]"
6,0.239 µM,"COc1nc(N[C@H]2CC[C@@H](OC(F)F)CC2)nc2[nH]cc(-c3ccc4nnn(C)c4c3)c12 [Compound 2287, N-(cis-4-(Difluoromethoxy)cyclohexyl)-4-methoxy-5-(1-methyl-1H-benzo[d][1,2,3]triazol-6-yl)-7H-pyrrolo[2,3-d]pyrimidin-2-amine]"
7,1.48 µM,"COc1nc(N[C@H]2CC[C@@H](OC(F)(F)F)CC2)nc2[nH]cc(-c3ccc4nnn(C)c4c3)c12 [Compound 2289, 4-Methoxy-5-(1-methyl-1H-benzo[d][1,2,3]triazol-6-yl)-N-(cis-4-(trifluoromethoxy)cyclohexyl)-7H-pyrrolo[2,3-d]pyrimidin-2-amine]"
8,0.0237 µM,"COC[C@@H](C)Nc1nc(OC)c2c(-c3ccc4nnn(CC(F)F)c4c3)c[nH]c2n1 [Compound 2294, (R)-5-(1-(2,2-Difluoroethyl)-1H-benzo[d][1,2,3]triazol-6-yl)-4-methoxy-N-(1-methoxypropan-2-yl)-7H-pyrrolo[2,3-d]pyrimidin-2-amine]"
9,0.117 µM,"COc1nc(NCC(C)(C)F)nc2[nH]cc(-c3ccc4nccn4n3)c12 [Compound 2298, N-(2-Fluoro-2-methylpropyl)-5-(imidazo[1,2-b]pyridazin-6-yl)-4-methoxy-7H-pyrrolo[2,3-d]pyrimidin-2-amine]"
10,0.23 µM,"COC[C@@H](C)Nc1nc(OC)c2c(-c3ccc4nccn4n3)c[nH]c2n1 [Compound 2300, (R)-5-(Imidazo[1,2-b]pyridazin-6-yl)-4-methoxy-N-(1-methoxypropan-2-yl)-7H-pyrrolo[2,3-d]pyrimidin-2-amine]"
11,0.0218 µM,"COc1nc(NCC(C)(C)F)nc2[nH]cc(-c3ccn4nccc4c3)c12 [Compound 2305, N-(2-Fluoro-2-methylpropyl)-4-methoxy-5-(pyrazolo[1,5-a]pyridin-5-yl)-7H-pyrrolo[2,3-d]pyrimidin-2-amine]"
12,0.171 µM,"COc1nc(N[C@H]2CC[C@@H](OC)CC2)nc2[nH]cc(-c3ccn4nccc4c3)c12 [Compound 2306, 4-Methoxy-N-(cis-4-methoxycyclohexyl)-5-(pyrazolo[1,5-a]pyridin-5-yl)-7H-pyrrolo[2,3-d]pyrimidin-2-amine]"
13,0.462 µM,"COc1nc(N[C@H]2CC[C@H](OC(F)F)CC2)nc2[nH]cc(-c3ccn4nccc4c3)c12 [Compound 2308, N-(trans-4-(Difluoromethoxy)cyclohexyl)-4-methoxy-5-(pyrazolo[1,5-a]pyridin-5-yl)-7H-pyrrolo[2,3-d]pyrimidin-2-amine]"
14,0.0173 µM,"COc1nc(N[C@@H]2CCCOC2)nc2[nH]cc(-c3ccn4nccc4c3)c12 [Compound 2314, (R)-4-Methoxy-5-(pyrazolo[1,5-a]pyridin-5-yl)-N-(tetrahydro-2H-pyran-3-yl)-7H-pyrrolo[2,3-d]pyrimidin-2-amine]"
15,0.12 µM,"COc1nc(N[C@H]2CCCOC2)nc2[nH]cc(-c3ccn4nccc4c3)c12 [Compound 2315, (S)-4-Methoxy-5-(pyrazolo[1,5-a]pyridin-5-yl)-N-(tetrahydro-2H-pyran-3-yl)-7H-pyrrolo[2,3-d]pyrimidin-2-amine]"
16,0.16 µM,"COc1nc(N[C@@H]2CCOC[C@H]2F)nc2[nH]cc(-c3ccn4nccc4c3)c12 [Compound 2316, N-((3S,4R)-3-Fluorotetrahydro-2H-pyran-4-yl)-4-methoxy-5-(pyrazolo[1,5-a]pyridin-5-yl)-7H-pyrrolo[2,3-d]pyrimidin-2-amine]"

row,EC50,SMILES
1,0.107 µM,"COc1nc(N[C@@H]2CCOC[C@@H]2F)nc2[nH]cc(-c3ccn4nccc4c3)c12 [Compound 2317, N-((3R,4R)-3-Fluorotetrahydro-2H-pyran-4-yl)-4-methoxy-5-(pyrazolo[1,5-a]pyridin-5-yl)-7H-pyrrolo[2,3-d]pyrimidin-2-amine]"
2,0.0129 µM,"COc1nc(N[C@@H]2CCOC[C@H]2O)nc2[nH]cc(-c3ccn4nccc4c3)c12 [Compound 2318, (3S,4R)-4-((4-Methoxy-5-(pyrazolo[1,5-a]pyridin-5-yl)-7H-pyrrolo[2,3-d]pyrimidin-2-yl)amino)tetrahydro-2H-pyran-3-ol]"
3,0.287 µM,"COc1nc(N[C@@H]2CCOC[C@H]2OC)nc2[nH]cc(-c3ccn4nccc4c3)c12 [Compound 2319, 4-Methoxy-N-((3S,4R)-3-methoxytetrahydro-2H-pyran-4-yl)-5-(pyrazolo [1,5-a]pyridin-5-yl)-7H-pyrrolo[2,3-d]pyrimidin-2-amine]"
4,0.0594 µM,"CC(C)Oc1nc(N[C@H]2CC[C@@](C)(O)CC2)nc2[nH]cc(-c3ccn4nccc4c3)c12 [Compound 2320, cis-4-((4-Isopropoxy-5-(pyrazolo[1,5-a]pyridin-5-yl)-7H-pyrrolo[2,3-d]pyrimidin-2-yl)amino)-1-methylcyclohexan-1-ol]"
5,0.0009 µM,"COc1nc(NC2[C@H]3COC[C@@H]23)nc2[nH]cc(-c3ccn4nccc4c3)c12 (stereo partly drawn) [Compound 2323, N-((1R,5S,6r)-3-Oxabicyclo[3.1.0]hexan-6-yl)-4-methoxy-5-(pyrazolo[1,5-a]pyridin-5-yl)-7H-pyrrolo[2,3-d]pyrimidin-2-amine]"
6,0.0015 µM,"COc1nc(N[C@@H]2[C@@H]3COC[C@@H]32)nc2[nH]cc(-c3ccn4nccc4c3)c12 [Compound 2324, N-((1R,5S,6s)-3-oxabicyclo[3.1.0]hexan-6-yl)-4-methoxy-5-(pyrazolo [1,5-a]pyridin-5-yl)-7H-pyrrolo[2,3-d]pyrimidin-2-amine]"
7,0.087 µM,"COc1nc(NCC(C)(C)F)nc2[nH]cc(-c3ccn4nccc4n3)c12 [Compound 2325, N-(2-Fluoro-2-methylpropyl)-4-methoxy-5-(pyrazolo[1,5-a]pyrimidin-5-yl)-7H-pyrrolo[2,3-d]pyrimidin-2-amine]"
8,0.0013 µM,"C[C@]1(O)CC[C@@H](Nc2ncc3c(-c4ccc5nccn5c4)c[nH]c3n2)CC1 [Compound 2349, cis-4-((5-(Imidazo[1,2-a]pyridin-6-yl)-7H-pyrrolo[2,3-d]pyrimidin-2-yl)amino)-1-methylcyclohexan-1-ol]"
9,0.0011 µM,"COc1nc(N[C@H]2CC[C@](C)(O)CC2)nc2[nH]cc(-c3ccc4nccn4c3)c12 [Compound 2378, trans-4-((5-(Imidazo[1,2-a]pyridin-6-yl)-4-methoxy-7H-pyrrolo[2,3-d]pyrimidin-2-yl)amino)-1-methylcyclohexan-1-ol]"
10,0.0011 µM,"COc1nc(N[C@H]2CC[C@](C)(O)CC2)nc2[nH]cc(-c3cc(F)c4nccn4c3)c12 [Compound 2494, trans-4-((5-(8-Fluoroimidazo[1,2-a]pyridin-6-yl)-4-methoxy-7H-pyrrolo[2,3-d]pyrimidin-2-yl)amino)-1-methylcyclohexan-1-ol]"
11,0.0044 µM,"C[C@]1(O)CC[C@@H](Nc2ncc3c(-c4ccc5ncnn5c4)c[nH]c3n2)CC1 [Compound 3018, (1s,4s)-4-((5-([1,2,4]Triazolo[1,5-a]pyridin-6-yl)-7H-pyrrolo[2,3-d]pyrimidin-2-yl)amino)-1-methylcyclohexan-1-ol]"
12,0.0012 µM,"COc1nc(N[C@H]2CC[C@@H](OC)CC2)nc2[nH]cc(-c3ccc4ncnn4c3)c12 [Compound 3047, 5-([1,2,4]Triazolo[1,5-a]pyridin-6-yl)-4-methoxy-N-(cis-4-methoxycyclohexyl)-7H-pyrrolo[2,3-d]pyrimidin-2-amine]"
13,0.0013 µM,"[2H]C([2H])([2H])Oc1nc(N[C@H]2CC[C@@H](OC)CC2)nc2[nH]cc(-c3ccc4nnn(C)c4c3)c12 [Compound 3115, 4-(Methoxy-d3)—N-(cis-4-methoxycyclohexyl)-5-(1-methyl-1H-benzo[d][1,2,3]triazol-6-yl)-7H-pyrrolo[2,3-d]pyrimidin-2-amine]"
14,0.0002 µM,"COc1nc(N[C@H]2CC[C@](C)(O)CC2)nc2[nH]cc(-c3ccc4nnn(C)c4c3)c12 [Compound 3119, trans-4-((4-Methoxy-5-(1-methyl-1H-benzo[d][1,2,3]triazol-6-yl)-7H-pyrrolo[2,3-d]pyrimidin-2-yl)amino)-1-methylcyclohexan-1-ol]"
15,0.0042 µM,"COc1nc(N[C@H]2CC[C@@](C)(O)CC2)nc2[nH]cc(-c3ccc4nnn(C)c4c3)c12 [Compound 3120, cis-4-((4-Methoxy-5-(1-methyl-1H-benzo[d][1,2,3]triazol-6-yl)-7H-pyrrolo[2,3-d]pyrimidin-2-yl)amino)-1-methylcyclohexan-1-ol]"
